Where two headings read alike, the source gives them in different places.
What was measured:
[1] = below 85% relative humidity; cited from earlier work
[2] = cited from earlier work
[3] = Stability studies of the prepared FMC (storage, HPLC); assay type: physicochemical
Method: The purity of famciclovir was analyzed by HPLC under the following conditions: […]

[4] = 1 month, 25° C., 75% relative humidity
[5] = 1 month, 40° C., 75% relative humidity
[6] = 1 month, 55° C., 75% relative humidity
[7] = 2 month, 25° C., 75% relative humidity
[8] = 2 month, 40° C., 75% relative humidity
[9] = 2 month, 55° C., 75% relative humidity
[10] = 3 months, 25° C., 75% relative humidity
[11] = 3 months, 40° C., 75% relative humidity
[12] = 3 months, 55° C., 75% relative humidity
[13] = 5 months, 25° C., 75% relative humidity
[14] = 6 months, 25° C., 75% relative humidity
[15] = 6 months, 40° C., 75% relative humidity
[16] = 6 months, 55° C., 75% relative humidity

## 2-[2-(2-amino-9H-purin-9-yl)ethyl]-1,3-propane diacetate [famciclovir]
[1]
  hygroscopicity: not hydroscopic
[2]; octanol/phosphate buffer (pH 7.4)
  partition coefficient P: 2.08
[2]; octanol/water (pH 4.8)
  partition coefficient P: 1.09
[3]; [4]
  Any, %: 0.00%
  Total, %: 0.00%
[3]; [5]
  Any, %: 0.00%
  Total, %: 0.00%
[3]; [6]
  Any, %: 0.00%
  Total, %: 0.00%
[3]; [7]
  Any, %: 0.00%
  Total, %: 0.00%
[3]; [8]
  Any, %: 0.06%
  Appear.: White
  MH-FMC RRT 0.51 (%): 0.06%
  RRT 0.80 (%): <0.01%
  RRT 0.87 (%): <0.01%
  RRT 0.89 (%): 0.01%
  RRT 1.10 (%): <0.01%
  RRT 1.27 (%): <0.01%
  RRT 1.35 (%): <0.01%
  RRT 1.74 (%): <0.01%
  Total, %: 0.07%
[3]; [9]
  Any, %: 0.07%
  Appear.: White
  MH-FMC RRT 0.51 (%): 0.07%
  RRT 0.80 (%): <0.01%
  RRT 0.87 (%): <0.01%
  RRT 0.89 (%): 0.01%
  RRT 1.10 (%): <0.01%
  RRT 1.27 (%): <0.01%
  RRT 1.35 (%): <0.01%
  RRT 1.74 (%): <0.01%
  Total, %: 0.08%
[3]; [10]
  Any, %: 0.00%
  Total, %: 0.00%
[3]; [11]
  Any, %: 0.06%
  Appear.: White
  MH-FMC RRT 0.51 (%): 0.06%
  RRT 0.80 (%): <0.01%
  RRT 0.87 (%): <0.01%
  RRT 0.89 (%): 0.01%
  RRT 1.10 (%): <0.01%
  RRT 1.27 (%): <0.01%
  RRT 1.35 (%): <0.01%
  RRT 1.74 (%): <0.01%
  Total, %: 0.07%
[3]; [12]
  Any, %: 0.06%
  Appear.: White
  MH-FMC RRT 0.51 (%): 0.06%
  RRT 0.80 (%): <0.01%
  RRT 0.87 (%): <0.01%
  RRT 0.89 (%): 0.01%
  RRT 1.10 (%): <0.01%
  RRT 1.27 (%): <0.01%
  RRT 1.35 (%): <0.01%
  RRT 1.74 (%): <0.01%
  Total, %: 0.07%
[3]; [13]
  Any, %: 0.06%
  Appear.: White
  MH-FMC RRT 0.51 (%): 0.06%
  RRT 0.80 (%): 0.01%
  RRT 0.87 (%): 0.02%
  RRT 0.89 (%): 0.01%
  RRT 1.10 (%): 0.01%
  RRT 1.27 (%): 0.01%
  RRT 1.35 (%): 0.01%
  RRT 1.74 (%): 0.01%
  Total, %: 0.14%
[3]; [14]
  Any, %: 0.06%
  MH-FMC RRT 0.51 (%): 0.06%
  RRT 0.80 (%): 0.01%
  RRT 0.87 (%): 0.01%
  RRT 1.27 (%): 0.01%
  Total, %: 0.09%
[3]; [15]
  Any, %: 0.06%
  MH-FMC RRT 0.51 (%): 0.06%
  RRT 0.80 (%): 0.01%
  RRT 0.87 (%): 0.01%
  RRT 1.27 (%): 0.01%
  Total, %: 0.09%
[3]; [16]
  Any, %: 0.06%
  MH-FMC RRT 0.51 (%): 0.06%
  RRT 0.80 (%): 0.01%
  RRT 0.87 (%): 0.01%
  RRT 1.27 (%): 0.01%
  Total, %: 0.09%
[3]; at least 6 months at 25° C., 40° C. or 55° C. and 75% relative humidity
  monohydroxy impurity content upon storage: does not increase
[3]; start
  Any, %: 0.00%
  Total, %: 0.00%
